Source: patent publication US20240108745A1, “BIOACTIVE SUBSTANCE CONJUGATE, PREPARATION METHOD THEREFOR AND USE THEREOF” (MEDILINK THERAPEUTICS (SUZHOU) CO., LTD., priority 2021, published 2024)

Legend:
Experiment in all cases: Assay II of bioactive molecules on cell viability in vitro (CCK8)
Assay type in all cases: cell-based
[1] = test system: NUCG-4; conditions: CCK8, 3-4 days
Method: (§1) Tumor cells NUCG-4, PC-9, HT29, NCI-H358, KYSE520, A431 and A549 were first cultured; the bioactive molecules or fragments of the present disclosure were co-cultured with tumor cells, and then CCK8 reagent (Dojindo Laboratories (Shanghai), Cat: CK04, Lot: JJ744) was added, and the activity of dehydrogenase in mitochondria was detected by reading (detection wavelength 450 nm) on a microplate reader (manufacturer: Molecular Devices, model: SpectraMax M2), to evaluate the inhibitory effect of bioactive molecules on cell proliferation.
(§2) In vitro cell viability assay method: the tumor cells were digested by conventional methods using trypsin, and cells in tube were collected and counted, and then resuspended in the corresponding assay media (containing 2% FBS), which was added to a 96-well plate at 5000-10000 cells/well. Bioactive molecules were diluted with DMSO, and then 100 μL was added to a 96-well plate, the initial concentration was 10 μM, followed by 3-fold serial dilution (12 concentration gradients). The plate was incubated for 3-4 days at 37° C. under 5% CO2. Then, 20 μL of CCK8 reagent was added to each well, and the reaction was carried out for 2-6 h. The plate was read on a microplate reader (detection wavelength was 450 nm).

[2] = test system: NCI-H358; conditions: Homo sapiens, CCK8, 3-4 days
Method: as §1, §2

[3] = test system: PC-9; conditions: Homo sapiens, CCK8, 3-4 days
Method: as §1, §2

[4] = test system: A549; conditions: Homo sapiens, CCK8, 3-4 days
Method: as §1, §2

[5] = test system: KYSE520; conditions: Homo sapiens, KYSE-520; CCK8, 3-4 days
Method: as §1, §2

[6] = test system: HT29; conditions: Homo sapiens, HT-29; CCK8, 3-4 days
Method: as §1, §2

[7] = test system: A431; conditions: Homo sapiens, A-431; CCK8, 3-4 days
Method: as §1, §2

Work on `CC[C@@]1(O)C(=O)OCc2c1cc1n(c2=O)Cc2c-1nc1cc3c(cc1c2CCCO)OCO3` [Example A1.9, (S)-7-ethyl-7-hydroxy-14-(3-hydroxypropyl)-10,13-dihydro-11H-[1,3]dioxolo[4,5-g]pyrano[3′,4′:6,7]indolizino[1,2-b]quinolin-8,11(7H)-dione] yielded an EC50 [1] of 8.73 nM, an EC50 [2] of 46.2 nM and an EC50 [3] of 2.06 nM. For the same molecule, the EC50 [4] was 65.9 nM, the EC50 [5] was 49.6 nM and the EC50 [6] was 20.3 nM. It also gave an EC50 [7] of 5.71 nM.
